Test results reported in patent US20240158446A1, “CYCLIC COMPOUND HAVING SELECTIVE INHIBITORY ACTION ON KRAS OVER HRAS AND NRAS” (CHUGAI SEIYAKU KABUSHIKI KAISHA, priority 2021, published 2024).
Where two headings read alike, the source gives them in different places. *1 amine or outer side, *2 acyl side, *3 side chain or, on linkers, in order; H or OH if unused. Where a SMILES comes first, the peptide text is derived from it. Bridges are numbered along the chain shown (N, C = ends). [ ]: non-standard residue; d: D form. The star is where a group is joined. X22 = O=C([C@H](Cc1ccc(C(F)(F)F)cc1)N(CC1CCCC1)[*:1])[*:2]; hPhe(3-Cl-4-CF3) = N[C@@H](CCc1ccc(C(F)(F)F)c(Cl)c1)C(=O)O; NPrPhe(4-CF3) = CCCN[C@@H](Cc1ccc(C(F)(F)F)cc1)C(=O)O; NEtPhe(4-Me) = CCN[C@@H](Cc1ccc(C)cc1)C(=O)O; NMeGly(cPent) = CN[C@H](C(=O)O)C1CCCC1; Hyp = O=C(O)[C@@H]1C[C@@H](O)CN1; NMeD = CN[C@@H](CC(=O)O)C(=O)O; NMeL = CN[C@@H](CC(C)C)C(=O)O; Morpholide = C1CN(*)CCO1; NMeA = CN[C@@H](C)C(=O)O; Ac5c = NC1(C(=O)O)CCCC1; Aze = O=C(O)[C@@H]1CCN1; NEtG = CCNCC(=O)O; Sar = CNCC(=O)O

Legend:
[1] = target: GDP-bound NRAS wild-type protein (Homo sapiens, UniProt P01111); experiment: Binding to NRAS by surface plasmon resonance (SPR), Single Cycle Kinetics; settings: for NRAS/KRAS (ratio of KD value for NRAS to KD value for KRAS) / NRAS/KRAS (ratio of KD value with respect to NRAS to KD value with respect to KRAS): SPR, GDP-bound NRAS wild-type protein vs GDP-bound KRAS wild-type protein
Sequence of GDP-bound NRAS wild-type protein (P01111 whole entry): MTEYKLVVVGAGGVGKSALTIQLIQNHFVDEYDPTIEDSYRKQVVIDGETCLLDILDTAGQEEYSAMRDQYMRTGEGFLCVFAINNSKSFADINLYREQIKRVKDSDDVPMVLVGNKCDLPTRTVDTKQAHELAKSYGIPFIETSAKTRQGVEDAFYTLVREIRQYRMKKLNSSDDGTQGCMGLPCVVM

[2] = target: GDP-bound HRAS wild-type protein (Homo sapiens, UniProt P01112); experiment: Binding to HRAS by surface plasmon resonance (SPR), Single Cycle Kinetics; settings: for HRAS/KRAS (ratio of KD value for HRAS to KD value for KRAS) / HRAS/KRAS (ratio of KD value with respect to HRAS to KD value with respect to KRAS): SPR, GDP-bound HRAS wild-type protein vs GDP-bound KRAS wild-type protein
Sequence of GDP-bound HRAS wild-type protein (P01112 whole entry): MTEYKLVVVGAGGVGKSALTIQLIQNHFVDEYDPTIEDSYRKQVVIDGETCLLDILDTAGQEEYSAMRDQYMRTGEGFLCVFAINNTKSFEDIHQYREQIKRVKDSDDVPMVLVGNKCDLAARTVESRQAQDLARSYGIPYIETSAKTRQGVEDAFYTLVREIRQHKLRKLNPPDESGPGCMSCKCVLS

[3] = target: GDP-bound KRAS wild-type protein (Homo sapiens, UniProt P01116); experiment: Binding to KRAS by surface plasmon resonance (SPR), Single Cycle Kinetics; settings: GDP-bound KRAS wild-type protein, read-out: KRAS KD
Sequence of GDP-bound KRAS wild-type protein (P01116 whole entry): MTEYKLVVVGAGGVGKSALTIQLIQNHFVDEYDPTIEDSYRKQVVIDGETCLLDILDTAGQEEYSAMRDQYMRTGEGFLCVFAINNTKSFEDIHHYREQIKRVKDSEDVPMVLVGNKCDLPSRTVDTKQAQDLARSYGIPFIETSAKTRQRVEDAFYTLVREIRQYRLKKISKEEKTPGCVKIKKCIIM

[4] = SPR, Single Cycle Kinetics, 1:1 binding model
[5] = SPR Single Cycle Kinetics, 1:1 binding model

Structure (SMILES) | NRAS/KRAS (ratio of KD value for NRAS to KD value for KRAS) [1] | HRAS/KRAS (ratio of KD value for HRAS to KD value for KRAS) [2] | Kd [3, 5] [nM] | Kd ([3]; SPR, Single Cycle Kinetics) [nM] | further results
CCO[C@@H]1C[C@H]2C(=O)NC3(CCC3)C(=O)N(C)[C@@H](C(CC)CC)C(=O)N(C)C(C(C)C)CC(=O)N(C)[C@@H](CC3CC3)C(=O)N[C@@H]([C@@H](C)CC)C(=O)N(C)CC(=O)N(C)[C@H]3C/C=C\CCN(C3=O)[C@@H](Cc3ccc(C(F)(F)F)cc3)C(=O)N(C)CC(=O)N[C@@H](CCc3cc(F)c(C(F)(F)F)c(F)c3)C(=O)N2C1 (stereo partly drawn) [PP1595] |  |  |  |  | NRAS/KRAS (ratio of KD value for NRAS to KD value for KRAS) ([1]; KD ratio class): A (a compound having 10 or more and less than 20 is denoted as A); HRAS/KRAS (ratio of KD value for HRAS to KD value for KRAS) ([2]; KD ratio class): A (a compound having 10 or more and less than 20 is denoted as A); Kd [3, 4]: 2.3 nM
CC[C@H](C)[C@@H]1NC(=O)[C@H](CC(C)C)N(C)C(=O)C[C@@H](C(=O)N2CCOCC2)N(C)C(=O)[C@H](C2CCCC2)N(C)C(=O)C2(CCCC2)NC(=O)[C@@H]2CCCN2C(=O)[C@H](CCc2ccc(C(F)(F)F)c(Cl)c2)NC(=O)CN(C)C(=O)[C@H](Cc2ccc(C(F)(F)F)cc2)N(CC2CCCC2)C(=O)CN(C)C(=O)CN(C)C1=O [PP0124] ([NMeL]I[Sar][Sar][X22][Sar][hPhe(3-Cl-4-CF3)]P[Ac5c][NMeGly(cPent)][NMeD]-Morpholide; lactam N-11) | C (A compound having a KD ratio of 0.1 or more and less than 3 is denoted as C) | C (A compound having a KD ratio of 0.1 or more and less than 3 is denoted as C) | 3.5 |  | 
CCO[C@@H]1C[C@H]2C(=O)NC3(CCC3)C(=O)N(C)[C@@H](C(CC)CC)C(=O)N(C)[C@H](C(=O)N(C)C)CC(=O)N(C)[C@@H](CC(C)C)C(=O)N[C@@H]([C@@H](C)CC)C(=O)N(C)CC(=O)N(C)[C@H]3C/C=C\CCN(C3=O)[C@@H](Cc3ccc(F)cc3C)C(=O)N(C)CC(=O)N[C@@H](CCc3cc(F)c(C(F)(F)F)c(F)c3)C(=O)N2C1 [PP1518] |  |  |  |  | NRAS/KRAS (ratio of KD value for NRAS to KD value for KRAS) ([1]; KD ratio class): A (a compound having 10 or more and less than 20 is denoted as A); HRAS/KRAS (ratio of KD value for HRAS to KD value for KRAS) ([2]; KD ratio class): B (a compound having 3 or more and less than 10 is denoted as B); Kd [3, 4]: 0.58 nM
CCO[C@@H]1C[C@H]2C(=O)NC3(CC(C)(C)C3)C(=O)N(C)[C@@H](C(CC)CC)C(=O)N(C)[C@H](C(=O)N(C)C)CC(=O)N(C)[C@@H](CC3CC3)C(=O)N[C@@H]([C@@H](C)CC)C(=O)N(C)CC(=O)N(C)[C@H]3C/C=C\CCN(C3=O)[C@@H](Cc3ccc(C(F)(F)F)cc3)C(=O)N(C)CC(=O)N[C@@H](CCc3ccc(C(F)(F)F)c(OC)c3)C(=O)N2C1 [PP2155] | A (a compound having 10 or more and less than 20 is denoted as A) | B (a compound having 3 or more and less than 10 is denoted as B) |  | 0.37 | 
CC[C@H](C)[C@@H]1NC(=O)[C@H](C)N(C)C(=O)C[C@@H](C(=O)N2CCOCC2)N(C)C(=O)[C@H](C2CCCC2)N(C)C(=O)C2(CCCC2)NC(=O)[C@@H]2CCCN2C(=O)[C@H](CCc2ccc(C(F)(F)F)c(Cl)c2)NC(=O)CN(C)C(=O)[C@H](Cc2ccc(C)cc2)N(CC)C(=O)[C@@H]2CCN2C(=O)[C@H](C)N(C)C1=O [PP0007] ([NMeA]I[NMeA][Aze][NEtPhe(4-Me)][Sar][hPhe(3-Cl-4-CF3)]P[Ac5c][NMeGly(cPent)][NMeD]-Morpholide; lactam N-11) | C (A compound having a KD ratio of 0.1 or more and less than 3 is denoted as C) | C (A compound having a KD ratio of 0.1 or more and less than 3 is denoted as C) | 0.074 |  | 
CCC[C@H]1C(=O)N[C@@H]([C@@H](C)CC)C(=O)N(C)CC(=O)N(C)[C@H]2C/C=C\CCN(C2=O)[C@@H](Cc2ccc(C(F)(F)F)cc2)C(=O)N(C)CC(=O)N[C@@H](CCc2cc(Cl)c3sccc3c2)C(=O)N2C[C@H](OCC)C[C@H]2C(=O)NC2(CC(C)(C)C2)C(=O)N(C)[C@@H](C2CCCC2)C(=O)N(C)[C@H](C(=O)N(C)C)CC(=O)N1C [PP2946] |  |  | 0.052 |  | NRAS/KRAS (ratio of KD value with respect to GDP-bound NRAS wild-type protein to KD value with respect to KRAS) ([1]; SPR KD ratio NRAS/KRAS, class symbols): A (a compound having 10 or more and less than 20 is denoted as A); HRAS/KRAS (ratio of KD value with respect to GDP-bound HRAS wild-type protein to KD value with respect to KRAS) ([2]; SPR KD ratio HRAS/KRAS, class symbols): A (a compound having 10 or more and less than 20 is denoted as A)
C#CCN1CC(=O)N(C)[C@H]2C/C=C\CCN(C2=O)[C@@H](Cc2ccc(C)cc2)C(=O)N(C)CC(=O)N[C@@H](CCc2cc(F)c(C(F)(F)F)c(F)c2)C(=O)N2C[C@H](OCC)C[C@H]2C(=O)NC2(CC(C)(C)C2)C(=O)N(C)[C@@H](C2CCCC2)C(=O)N(C)[C@H](C(=O)N(C)C)CC(=O)N(C)[C@@H](CCC)C(=O)N[C@@H]([C@@H](C)CC)C1=O [PP2095] | A (a compound having 10 or more and less than 20 is denoted as A) | A (a compound having 10 or more and less than 20 is denoted as A) |  | 0.15 | 
CCCN(C)C(=O)[C@@H]1CC(=O)N(C)[C@@H](COCC)C(=O)N[C@@H]([C@@H](C)CC)C(=O)N(C)CC(=O)N(C)[C@H]2C/C=C\CCN(C2=O)[C@@H](Cc2ccc(C(F)(F)F)cc2)C(=O)N(C)CC(=O)N[C@@H](CCc2cc(F)c(C(F)(F)F)c(F)c2)C(=O)N2C[C@@H](C)C[C@H]2C(=O)NC2(CC(C)(C)C2)C(=O)N(C)[C@@H](C2CCCC2)C(=O)N1C [PP2041] | A (a compound having 10 or more and less than 20 is denoted as A) | A (a compound having 10 or more and less than 20 is denoted as A) |  | 0.19 | 
CC[C@H](C)[C@@H]1NC(=O)[C@H](CC)N(C)C(=O)C[C@@H](C(=O)N(C)C)N(C)C(=O)[C@H](C2CCCC2)N(C)C(=O)C2(CCC2)NC(=O)[C@@H]2CCCCN2C(=O)[C@H](CCc2cc(F)c(C(F)(F)F)c(F)c2)NC(=O)CN(C)C(=O)[C@H](Cc2ccc(C(F)(F)F)cc2)N2CCCCC[C@@H](C2=O)N(C)C(=O)CN(C)C1=O [PP0655] |  |  | 1.9 |  | NRAS/KRAS (ratio of KD value with respect to NRAS to KD value with respect to KRAS) [1]: B (a compound having 3 or more and less than 10 is denoted as B); HRAS/KRAS (ratio of KD value with respect to HRAS to KD value with respect to KRAS) [2]: B (a compound having 3 or more and less than 10 is denoted as B)
CC[C@H](C)[C@@H]1NC(=O)[C@H](CC(C)C)N(C)C(=O)C[C@@H](C(=O)N2CCOCC2)N(C)C(=O)[C@H](C2CCCC2)N(C)C(=O)C2(CCCC2)NC(=O)[C@@H]2CCCN2C(=O)[C@H](CCc2cc(F)c(C(F)(F)F)c(F)c2)NC(=O)CN(C)C(=O)[C@H](Cc2ccc(C(F)(F)F)cc2)N2CCCCC[C@@H](C2=O)N(C)C(=O)[C@@H]2CCCN2C1=O [PP0485] |  |  | 28 |  | NRAS/KRAS (ratio of KD value with respect to NRAS to KD value with respect to KRAS) [1]: A (a compound having 10 or more and less than 20 is denoted as A); HRAS/KRAS (ratio of KD value with respect to HRAS to KD value with respect to KRAS) [2]: B (a compound having 3 or more and less than 10 is denoted as B)
CCCN1C(=O)CN(C)C(=O)CN(CC)C(=O)[C@H]([C@@H](C)CC)NC(=O)[C@H](CC(C)C)N(C)C(=O)C[C@@H](C(=O)N2CCOCC2)N(C)C(=O)[C@H](C2CCCC2)N(C)C(=O)C2(CCCC2)NC(=O)[C@@H]2C[C@@H](OC)CN2C(=O)[C@H](CCc2ccc(C(F)(F)F)c(Cl)c2)NC(=O)CN(C)C(=O)[C@@H]1Cc1ccc(C(F)(F)F)cc1 [PP0296] ([NMeL]I[NEtG][Sar][NPrPhe(4-CF3)][Sar][hPhe(3-Cl-4-CF3)][Hyp](Me)[Ac5c][NMeGly(cPent)][NMeD]-Morpholide; lactam N-11) | B (a compound having 3 or more and less than 10 is denoted as B) | C (A compound having a KD ratio of 0.1 or more and less than 3 is denoted as C) | 0.15 |  | 
CC[C@H](C)[C@@H]1NC(=O)[C@H](COC)N(C)C(=O)C[C@@H](C(=O)N2CCOCC2)N(C)C(=O)[C@H](C2CCCC2)N(C)C(=O)C2(CCCC2)NC(=O)[C@@H]2CCCN2C(=O)[C@H](CCc2ccc(C(F)(F)F)c(Cl)c2)NC(=O)CN(C)C(=O)[C@H](Cc2ccc(F)cc2)N2CCCCC[C@@H](C2=O)N(C)C(=O)CN(C)C1=O [PP0960] | B (a compound having 3 or more and less than 10 is denoted as B) | B (a compound having 3 or more and less than 10 is denoted as B) |  | 0.37 | 
CCO[C@@H]1C[C@H]2C(=O)NC3(CC(C)(C)C3)C(=O)N(C)[C@@H](C(CC)CC)C(=O)N(C)[C@H](C(=O)N(C)C)CC(=O)N(C)[C@@H](CC3CCC3)C(=O)N[C@@H]([C@@H](C)CC)C(=O)N(C)CC(=O)N(C)[C@H]3C/C=C\CCN(C3=O)[C@@H](Cc3ccc(C(F)(F)F)cc3)C(=O)N(C)CC(=O)N[C@@H](CCc3cc(F)c(C(F)(F)F)c(F)c3)C(=O)N2C1 [PP2133] | AA (a compound having 20 or more is denoted as AA) | A (a compound having 10 or more and less than 20 is denoted as A) |  | 0.19 | 
